What was measured:
Experiment in all cases: KINOMEscan (ScanMAX) kinase profiling
Type in all cases: binding
panel of 468 kinases [1] = molecular target: T1, panel of 468 kinases (Homo sapiens, UniProt Q13557); conditions: CAMK2D; 1 μM; read-out: % control
T1 construct: purchased KINOMEscan (ScanMAX) service

panel of 468 kinases [2] = molecular target: T2, panel of 468 kinases (Homo sapiens, UniProt Q9HC98); conditions: NEK6; 1 μM; read-out: % control
T2 construct: purchased KINOMEscan (ScanMAX) service

panel of 468 kinases [3] = molecular target: T3, panel of 468 kinases (Homo sapiens, UniProt Q02779); conditions: MLK2; 1 μM; read-out: % control
T3 construct: purchased KINOMEscan (ScanMAX) service

panel of 468 kinases [4] = molecular target: T4, panel of 468 kinases (Homo sapiens, UniProt O14757); conditions: CHEK1; 1 μM; read-out: % control
T4 construct: purchased KINOMEscan (ScanMAX) service
T4 sequence (O14757 1-476): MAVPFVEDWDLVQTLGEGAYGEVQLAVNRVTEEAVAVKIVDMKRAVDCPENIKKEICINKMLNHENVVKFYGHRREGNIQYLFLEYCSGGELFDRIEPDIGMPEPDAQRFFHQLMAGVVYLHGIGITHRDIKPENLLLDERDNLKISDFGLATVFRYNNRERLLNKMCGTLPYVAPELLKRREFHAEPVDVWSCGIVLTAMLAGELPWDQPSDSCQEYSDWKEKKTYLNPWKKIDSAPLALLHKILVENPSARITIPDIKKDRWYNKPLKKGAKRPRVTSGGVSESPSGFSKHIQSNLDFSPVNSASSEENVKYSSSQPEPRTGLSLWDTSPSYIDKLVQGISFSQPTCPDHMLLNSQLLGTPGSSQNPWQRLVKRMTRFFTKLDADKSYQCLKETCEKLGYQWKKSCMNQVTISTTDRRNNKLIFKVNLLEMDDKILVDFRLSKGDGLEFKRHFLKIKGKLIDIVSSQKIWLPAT

panel of 468 kinases [5] = molecular target: T5, panel of 468 kinases (Homo sapiens, UniProt P08581, M1250T); conditions: MET(M1250T); 1 μM; read-out: % control
T5 construct: purchased KINOMEscan (ScanMAX) service

panel of 468 kinases [6] = molecular target: T6, panel of 468 kinases (Homo sapiens, UniProt P12931); conditions: SRC; 1 μM; read-out: % control
T6 construct: purchased KINOMEscan (ScanMAX) service

panel of 468 kinases [7] = molecular target: T7, panel of 468 kinases (Homo sapiens, UniProt P42679); conditions: CTK; 1 μM; read-out: % control
T7 construct: purchased KINOMEscan (ScanMAX) service
T7 sequence (P42679 1-507): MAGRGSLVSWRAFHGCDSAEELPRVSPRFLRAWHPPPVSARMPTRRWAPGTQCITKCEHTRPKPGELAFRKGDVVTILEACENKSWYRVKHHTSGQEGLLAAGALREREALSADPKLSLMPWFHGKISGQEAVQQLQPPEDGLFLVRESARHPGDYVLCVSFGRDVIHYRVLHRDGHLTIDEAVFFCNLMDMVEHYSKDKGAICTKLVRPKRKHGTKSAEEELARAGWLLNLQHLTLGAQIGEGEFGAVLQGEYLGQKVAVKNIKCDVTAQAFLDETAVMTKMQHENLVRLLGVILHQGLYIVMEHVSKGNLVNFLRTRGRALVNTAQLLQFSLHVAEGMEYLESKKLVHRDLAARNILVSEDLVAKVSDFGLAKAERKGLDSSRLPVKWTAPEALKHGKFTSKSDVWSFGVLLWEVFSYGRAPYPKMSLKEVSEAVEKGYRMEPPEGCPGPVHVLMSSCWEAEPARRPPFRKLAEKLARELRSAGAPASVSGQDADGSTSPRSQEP

panel of 468 kinases [8] = molecular target: T8, panel of 468 kinases (Homo sapiens, UniProt P17612); conditions: PKAC-alpha; 1 μM; read-out: % control
T8 construct: purchased KINOMEscan (ScanMAX) service

panel of 468 kinases [9] = molecular target: T9, panel of 468 kinases (Homo sapiens, UniProt O15530); conditions: PDPK1; 1 μM; read-out: % control
T9 construct: purchased KINOMEscan (ScanMAX) service
T9 sequence (O15530 1-556): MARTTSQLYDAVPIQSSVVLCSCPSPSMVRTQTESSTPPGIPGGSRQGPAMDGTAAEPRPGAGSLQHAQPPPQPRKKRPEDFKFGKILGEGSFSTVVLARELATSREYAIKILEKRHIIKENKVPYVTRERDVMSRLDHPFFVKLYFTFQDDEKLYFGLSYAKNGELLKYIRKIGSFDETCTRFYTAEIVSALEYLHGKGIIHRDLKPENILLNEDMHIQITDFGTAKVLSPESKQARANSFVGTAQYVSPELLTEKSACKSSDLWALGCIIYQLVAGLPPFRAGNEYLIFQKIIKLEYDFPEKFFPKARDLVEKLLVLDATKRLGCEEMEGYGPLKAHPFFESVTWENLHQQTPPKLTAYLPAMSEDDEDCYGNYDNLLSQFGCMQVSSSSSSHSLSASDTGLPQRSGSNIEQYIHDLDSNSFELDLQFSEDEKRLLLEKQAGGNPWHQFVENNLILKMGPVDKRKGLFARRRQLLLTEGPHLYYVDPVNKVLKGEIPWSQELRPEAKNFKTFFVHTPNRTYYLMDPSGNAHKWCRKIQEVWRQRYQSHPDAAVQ

panel of 468 kinases [10] = molecular target: T10, panel of 468 kinases (Homo sapiens, UniProt Q86UX6); conditions: YANK3; 1 μM; read-out: % control
T10 construct: purchased KINOMEscan (ScanMAX) service

panel of 468 kinases [11] = molecular target: T11, panel of 468 kinases (Homo sapiens, UniProt P15056); conditions: BRAF; 1 μM; read-out: % control
T11 construct: purchased KINOMEscan (ScanMAX) service

panel of 468 kinases [12] = molecular target: T12, panel of 468 kinases (Homo sapiens, UniProt Q92918); conditions: HPK1; 1 μM; read-out: % control
T12 construct: purchased KINOMEscan (ScanMAX) service

T10 sequence (Q86UX6 whole entry): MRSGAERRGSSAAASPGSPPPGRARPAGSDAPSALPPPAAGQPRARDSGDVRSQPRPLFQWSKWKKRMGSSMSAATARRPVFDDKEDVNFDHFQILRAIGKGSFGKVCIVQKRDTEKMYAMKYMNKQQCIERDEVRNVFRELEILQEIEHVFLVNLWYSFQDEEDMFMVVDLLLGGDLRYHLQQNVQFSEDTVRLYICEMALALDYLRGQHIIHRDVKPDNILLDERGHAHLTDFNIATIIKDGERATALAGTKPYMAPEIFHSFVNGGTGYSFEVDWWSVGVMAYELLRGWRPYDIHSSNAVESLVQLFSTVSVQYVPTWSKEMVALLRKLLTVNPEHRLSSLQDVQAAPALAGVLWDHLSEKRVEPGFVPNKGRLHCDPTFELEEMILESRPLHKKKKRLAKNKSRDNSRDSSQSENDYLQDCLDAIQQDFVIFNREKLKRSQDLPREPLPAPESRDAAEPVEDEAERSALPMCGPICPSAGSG
T2 sequence (Q9HC98 whole entry): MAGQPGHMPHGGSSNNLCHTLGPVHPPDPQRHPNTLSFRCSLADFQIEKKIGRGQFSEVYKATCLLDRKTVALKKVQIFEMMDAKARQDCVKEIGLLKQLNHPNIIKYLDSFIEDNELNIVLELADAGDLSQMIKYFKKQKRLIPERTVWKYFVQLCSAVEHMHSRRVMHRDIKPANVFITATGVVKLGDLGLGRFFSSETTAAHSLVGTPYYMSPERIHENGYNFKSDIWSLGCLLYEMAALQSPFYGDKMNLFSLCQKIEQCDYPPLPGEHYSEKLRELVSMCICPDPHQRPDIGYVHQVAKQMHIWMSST
T1 sequence (Q13557 whole entry): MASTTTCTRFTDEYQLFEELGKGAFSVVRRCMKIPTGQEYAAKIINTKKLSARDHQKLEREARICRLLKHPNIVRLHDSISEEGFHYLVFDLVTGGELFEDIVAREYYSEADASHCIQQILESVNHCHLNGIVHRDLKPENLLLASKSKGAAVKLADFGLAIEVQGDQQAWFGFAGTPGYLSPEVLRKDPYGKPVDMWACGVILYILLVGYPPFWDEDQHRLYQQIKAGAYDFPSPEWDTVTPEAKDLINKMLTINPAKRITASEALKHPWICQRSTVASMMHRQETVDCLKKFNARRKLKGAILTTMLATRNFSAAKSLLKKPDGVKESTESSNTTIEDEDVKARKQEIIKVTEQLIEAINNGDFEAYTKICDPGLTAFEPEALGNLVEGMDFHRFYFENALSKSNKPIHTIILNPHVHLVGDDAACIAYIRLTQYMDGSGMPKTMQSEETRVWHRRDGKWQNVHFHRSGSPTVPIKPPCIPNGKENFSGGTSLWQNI
T3 sequence (Q02779 whole entry): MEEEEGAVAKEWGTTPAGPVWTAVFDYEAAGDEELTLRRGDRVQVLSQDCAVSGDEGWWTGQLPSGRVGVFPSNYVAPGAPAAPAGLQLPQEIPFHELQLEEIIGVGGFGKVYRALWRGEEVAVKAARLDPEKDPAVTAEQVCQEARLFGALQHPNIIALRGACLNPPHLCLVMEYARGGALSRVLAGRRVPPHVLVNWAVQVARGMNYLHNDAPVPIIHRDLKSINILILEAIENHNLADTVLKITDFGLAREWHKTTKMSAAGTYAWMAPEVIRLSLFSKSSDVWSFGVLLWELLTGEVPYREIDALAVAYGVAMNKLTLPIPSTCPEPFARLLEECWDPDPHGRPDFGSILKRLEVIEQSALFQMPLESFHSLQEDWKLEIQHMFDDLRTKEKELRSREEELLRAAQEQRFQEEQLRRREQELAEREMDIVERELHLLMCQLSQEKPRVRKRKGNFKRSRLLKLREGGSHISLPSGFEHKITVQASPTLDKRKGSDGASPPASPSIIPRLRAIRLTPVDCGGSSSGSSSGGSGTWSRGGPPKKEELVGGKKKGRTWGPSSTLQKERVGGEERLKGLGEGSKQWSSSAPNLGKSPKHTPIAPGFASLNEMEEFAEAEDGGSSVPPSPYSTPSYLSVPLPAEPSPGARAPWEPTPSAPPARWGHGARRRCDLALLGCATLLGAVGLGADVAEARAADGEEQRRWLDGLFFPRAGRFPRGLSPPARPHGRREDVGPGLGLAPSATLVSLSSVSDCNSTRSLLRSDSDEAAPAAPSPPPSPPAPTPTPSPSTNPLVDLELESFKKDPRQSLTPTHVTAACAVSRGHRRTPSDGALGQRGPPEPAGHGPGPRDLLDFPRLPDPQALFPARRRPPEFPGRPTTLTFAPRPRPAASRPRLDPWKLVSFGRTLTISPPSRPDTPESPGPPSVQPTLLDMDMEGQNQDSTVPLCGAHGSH
T11 sequence (P15056 whole entry): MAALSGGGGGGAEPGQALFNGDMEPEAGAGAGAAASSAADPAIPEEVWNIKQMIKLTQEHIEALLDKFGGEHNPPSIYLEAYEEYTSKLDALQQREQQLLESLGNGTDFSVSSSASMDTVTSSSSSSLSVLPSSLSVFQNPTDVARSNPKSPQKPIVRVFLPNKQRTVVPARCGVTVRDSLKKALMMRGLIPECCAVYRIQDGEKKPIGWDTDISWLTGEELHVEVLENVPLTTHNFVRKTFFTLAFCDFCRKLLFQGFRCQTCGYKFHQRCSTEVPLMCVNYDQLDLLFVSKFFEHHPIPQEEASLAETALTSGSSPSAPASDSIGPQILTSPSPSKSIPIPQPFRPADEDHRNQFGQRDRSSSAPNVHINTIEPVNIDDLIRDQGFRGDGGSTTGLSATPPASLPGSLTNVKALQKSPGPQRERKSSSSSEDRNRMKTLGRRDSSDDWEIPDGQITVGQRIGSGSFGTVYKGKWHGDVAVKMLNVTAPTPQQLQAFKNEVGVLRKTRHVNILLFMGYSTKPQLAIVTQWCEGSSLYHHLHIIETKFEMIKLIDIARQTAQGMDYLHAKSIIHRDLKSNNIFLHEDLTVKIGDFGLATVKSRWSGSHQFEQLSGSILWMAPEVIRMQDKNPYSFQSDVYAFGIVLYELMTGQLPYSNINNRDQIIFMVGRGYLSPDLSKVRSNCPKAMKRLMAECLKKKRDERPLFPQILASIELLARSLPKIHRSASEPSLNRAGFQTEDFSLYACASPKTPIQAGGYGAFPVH
T6 sequence (P12931 whole entry): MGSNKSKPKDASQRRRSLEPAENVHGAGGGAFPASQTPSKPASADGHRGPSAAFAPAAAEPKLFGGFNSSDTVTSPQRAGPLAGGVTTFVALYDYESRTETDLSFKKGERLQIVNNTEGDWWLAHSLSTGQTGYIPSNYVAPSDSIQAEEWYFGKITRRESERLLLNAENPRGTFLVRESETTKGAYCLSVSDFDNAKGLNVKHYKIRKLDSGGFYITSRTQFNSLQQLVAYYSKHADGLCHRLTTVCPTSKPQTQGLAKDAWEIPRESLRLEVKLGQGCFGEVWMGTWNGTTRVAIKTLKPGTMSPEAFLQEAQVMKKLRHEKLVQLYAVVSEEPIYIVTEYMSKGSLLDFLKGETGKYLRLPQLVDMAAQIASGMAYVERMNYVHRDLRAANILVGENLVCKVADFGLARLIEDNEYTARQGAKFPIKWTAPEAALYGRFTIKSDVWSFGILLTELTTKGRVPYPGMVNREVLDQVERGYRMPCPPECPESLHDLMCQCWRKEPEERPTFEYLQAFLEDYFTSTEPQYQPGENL
T5 sequence (P08581 25-1390 M1250T): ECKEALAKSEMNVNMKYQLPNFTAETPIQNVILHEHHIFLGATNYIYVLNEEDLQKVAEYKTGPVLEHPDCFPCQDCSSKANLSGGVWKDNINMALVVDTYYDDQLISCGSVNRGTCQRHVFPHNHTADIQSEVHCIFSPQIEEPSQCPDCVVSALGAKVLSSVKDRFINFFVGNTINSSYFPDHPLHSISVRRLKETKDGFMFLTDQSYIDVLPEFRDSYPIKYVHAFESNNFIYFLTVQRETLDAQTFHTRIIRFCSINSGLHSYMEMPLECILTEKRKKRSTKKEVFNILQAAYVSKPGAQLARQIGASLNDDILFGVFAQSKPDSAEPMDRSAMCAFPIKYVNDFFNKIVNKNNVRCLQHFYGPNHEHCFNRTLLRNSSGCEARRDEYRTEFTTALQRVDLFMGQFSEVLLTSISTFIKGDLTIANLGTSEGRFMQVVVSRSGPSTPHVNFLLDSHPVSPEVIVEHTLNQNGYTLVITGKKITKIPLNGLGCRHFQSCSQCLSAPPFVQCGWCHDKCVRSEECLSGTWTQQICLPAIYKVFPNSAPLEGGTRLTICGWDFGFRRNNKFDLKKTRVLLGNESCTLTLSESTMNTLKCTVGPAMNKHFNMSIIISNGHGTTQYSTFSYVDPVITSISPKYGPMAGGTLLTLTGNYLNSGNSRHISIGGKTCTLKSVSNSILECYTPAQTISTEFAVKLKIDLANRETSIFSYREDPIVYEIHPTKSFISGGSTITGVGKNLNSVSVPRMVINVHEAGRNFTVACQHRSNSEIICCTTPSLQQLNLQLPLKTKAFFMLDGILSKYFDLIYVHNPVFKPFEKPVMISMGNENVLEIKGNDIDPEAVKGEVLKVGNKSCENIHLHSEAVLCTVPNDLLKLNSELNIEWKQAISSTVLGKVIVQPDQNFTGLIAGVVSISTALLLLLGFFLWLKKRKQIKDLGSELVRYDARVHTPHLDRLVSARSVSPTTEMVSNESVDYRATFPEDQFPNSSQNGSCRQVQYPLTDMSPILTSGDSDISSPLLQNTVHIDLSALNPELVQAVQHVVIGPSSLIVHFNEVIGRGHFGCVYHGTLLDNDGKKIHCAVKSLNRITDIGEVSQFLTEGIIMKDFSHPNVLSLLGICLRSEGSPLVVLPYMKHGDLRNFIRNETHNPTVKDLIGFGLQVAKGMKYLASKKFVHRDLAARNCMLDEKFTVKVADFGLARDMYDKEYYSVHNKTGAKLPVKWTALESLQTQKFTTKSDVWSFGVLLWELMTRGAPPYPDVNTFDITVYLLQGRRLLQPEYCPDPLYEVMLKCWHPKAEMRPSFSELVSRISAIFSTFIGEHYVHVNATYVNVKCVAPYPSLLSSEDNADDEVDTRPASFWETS

Structure (SMILES)	remaining binding at 1 µM (panel of 468 kinases [1]) [%]	remaining binding at 1 µM (panel of 468 kinases [2]) [%]	remaining binding at 1 µM (panel of 468 kinases [3]) [%]	remaining binding at 1 µM (panel of 468 kinases [4]) [%]	remaining binding at 1 µM (panel of 468 kinases [5]) [%]	remaining binding at 1 µM (panel of 468 kinases [6]) [%]	remaining binding at 1 µM (panel of 468 kinases [7]) [%]	remaining binding at 1 µM (panel of 468 kinases [8]) [%]	remaining binding at 1 µM (panel of 468 kinases [9]) [%]	remaining binding at 1 µM (panel of 468 kinases [10]) [%]	remaining binding at 1 µM (panel of 468 kinases [11]) [%]	remaining binding at 1 µM (panel of 468 kinases [12]) [%]
CNc1nc(Nc2ccc(S(=O)(=O)N3CCC(N4CCOCC4)CC3)cc2OC)nc2[nH]cc(Cl)c12 [Compound 12, 5-chloro-N2-(2-methoxy-4-((4-morpholinopiperidin-1-yl)sulfonyl)phenyl)-N4-methyl-7H-pyrrolo[2,3-d]pyrimidine-2,4-diamine]	96	100	99	100	100	100	100	100	95	100	93	78
CNc1nc(Nc2ccc(C(=O)N3CCC(N4CCOCC4)CC3)c3c2OCO3)nc2[nH]cc(Cl)c12 [Compound 75, (7-((5-chloro-4-(methylamino)-7H-pyrrolo[2,3-d]pyrimidin-2-yl)amino)benzo[d][1,3]dioxol-4-yl)(4-morpholinopiperidin-1-yl)methanone]	89	100	93	67	100	100	100	100	98	100	100	47
CNc1nc(Nc2ccc(P3(=O)CCN(C4CCOCC4)CC3)cc2OC)nc2[nH]cc(Cl)c12 [Compound 77, 4-(4-((5-chloro-4-(methylamino)-7H-pyrrolo[2,3-d]pyrimidin-2-yl)amino)-3-methoxyphenyl)-1-(tetrahydro-2H-pyran-4-yl)-1,4-azaphosphinane 4-oxide]	89	100	99	100	100	100	99	100	100	100	97	97

Reference: patent US12479847B2 (DANA-FARBER CANCER INSTITUTE, INC., priority 2019, dated 2025)
